Values after ≈ are worked out from the molar mass of the structure shown. Active and inactive are the calls of the source. The rule behind the calls is not given here.
Legend:
[1] = Antimycobacterial activity against Mycobacterium abscessus subsp. abscessus bamboo strain assessed as inhibition of mycobacterial growth incubated for 3 days by broth microdilution method; type: functional; conditions: Mycobacteroides abscessus, 72 h, time 3 day
[2] = Lipophilicity, logP of compound; type: physicochemical; conditions: octanol/water
[3] = test system: Mycobacteroides abscessus; test: Antimycobacterial activity against Mycobacterium abscessus ATCC 19977 assessed as inhibition of mycobacterial growth incubated for 3 days by broth microdilution method; type: functional; conditions: ATCC 19977, 72 h, time 3 day
[4] = Antimycobacterial activity against Mycobacterium abscessus subsp. bolletii CCUG 50184T assessed as inhibition of mycobacterial growth incubated for 3 days by broth microdilution method; type: functional; conditions: Mycobacteroides abscessus, 72 h, time 3 day
[5] = Antimycobacterial activity against Mycobacterium abscessus subsp. massiliense CCUG 48898T assessed as inhibition of mycobacterial growth incubated for 3 days by broth microdilution method; type: functional; conditions: Mycobacteroides abscessus, 72 h, time 3 day
[6] = test system: Mycobacteroides abscessus; test: Antimycobacterial activity against Mycobacterium abscessus K21 assessed as inhibition of mycobacterial growth incubated for 3 days by broth microdilution method; type: functional; conditions: K21, 72 h, time 3 day
Mycobacterium avium = test: Antimycobacterial activity against Mycobacterium avium 11 assessed as inhibition of mycobacterial growth incubated for 3 days by broth microdilution method; type: functional; conditions: Mycobacterium avium, 11, 72 h; time 3 day
Staphylococcus aureus = test: Antibacterial activity against Staphylococcus aureus assessed as inhibition of bacterial growth incubated for 3 days by broth microdilution method; type: functional; conditions: 72 h, time 3 day
A-375 = test: Cytotoxicity against human A375 cells assessed as reduction in cell viability upto 30 uM after 24 hrs by SRB assay; type: functional, cell-based; conditions: dose microM <=30, time 24.0 hrs
HT-29 = test: Cytotoxicity against human HT-29 cells assessed as reduction in cell viability upto 30 uM after 24 hrs by SRB assay; type: functional, cell-based; conditions: dose microM <=30, time 24.0 hrs
MCF7 = test: Cytotoxicity against human MCF7 cells assessed as reduction in cell viability upto 30 uM after 24 hrs by SRB assay; type: functional, cell-based; conditions: dose microM <=30, time 24.0 hrs
FaDu = test: Cytotoxicity against human FaDu cells assessed as reduction in cell viability upto 30 uM after 24 hrs by SRB assay; type: functional, cell-based; conditions: dose microM <=30, time 24.0 hrs
NIH3T3 = test: Cytotoxicity against mouse NIH3T3 cells assessed as reduction in cell viability upto 30 uM after 24 hrs by SRB assay; type: toxicity, cell-based; conditions: nih3t3, 24 h
HEK293 = test: Cytotoxicity against human HEK293 cells assessed as reduction in cell viability upto 30 uM after 24 hrs by SRB assay; type: toxicity, cell-based; conditions: hek293, 24 h
[7] = Inhibition of Mycobacterium abscessus DNA gyrase using pBR322 DNA as substrate […] by fluorescence based microplate reader assay; set-up: species or system Mycobacteroides abscessus
[8] = Stability of compound in CD1 mouse at 25 mg/kg, po by HPLC-MS/MS analysis; type: ADME, organism-based; conditions: in vivo
[9] = Stability of compound in CD1 mouse plasma assessed as parent compound remaining by QE-HRMS analysis; type: ADME, cell-free
hERG (KCNH2) = hERG (KCNH2) (Homo sapiens, UniProt Q12809); test: Inhibition of human ERG at 10 uM; type: toxicity
Sequence of hERG (KCNH2) (Q12809 whole entry): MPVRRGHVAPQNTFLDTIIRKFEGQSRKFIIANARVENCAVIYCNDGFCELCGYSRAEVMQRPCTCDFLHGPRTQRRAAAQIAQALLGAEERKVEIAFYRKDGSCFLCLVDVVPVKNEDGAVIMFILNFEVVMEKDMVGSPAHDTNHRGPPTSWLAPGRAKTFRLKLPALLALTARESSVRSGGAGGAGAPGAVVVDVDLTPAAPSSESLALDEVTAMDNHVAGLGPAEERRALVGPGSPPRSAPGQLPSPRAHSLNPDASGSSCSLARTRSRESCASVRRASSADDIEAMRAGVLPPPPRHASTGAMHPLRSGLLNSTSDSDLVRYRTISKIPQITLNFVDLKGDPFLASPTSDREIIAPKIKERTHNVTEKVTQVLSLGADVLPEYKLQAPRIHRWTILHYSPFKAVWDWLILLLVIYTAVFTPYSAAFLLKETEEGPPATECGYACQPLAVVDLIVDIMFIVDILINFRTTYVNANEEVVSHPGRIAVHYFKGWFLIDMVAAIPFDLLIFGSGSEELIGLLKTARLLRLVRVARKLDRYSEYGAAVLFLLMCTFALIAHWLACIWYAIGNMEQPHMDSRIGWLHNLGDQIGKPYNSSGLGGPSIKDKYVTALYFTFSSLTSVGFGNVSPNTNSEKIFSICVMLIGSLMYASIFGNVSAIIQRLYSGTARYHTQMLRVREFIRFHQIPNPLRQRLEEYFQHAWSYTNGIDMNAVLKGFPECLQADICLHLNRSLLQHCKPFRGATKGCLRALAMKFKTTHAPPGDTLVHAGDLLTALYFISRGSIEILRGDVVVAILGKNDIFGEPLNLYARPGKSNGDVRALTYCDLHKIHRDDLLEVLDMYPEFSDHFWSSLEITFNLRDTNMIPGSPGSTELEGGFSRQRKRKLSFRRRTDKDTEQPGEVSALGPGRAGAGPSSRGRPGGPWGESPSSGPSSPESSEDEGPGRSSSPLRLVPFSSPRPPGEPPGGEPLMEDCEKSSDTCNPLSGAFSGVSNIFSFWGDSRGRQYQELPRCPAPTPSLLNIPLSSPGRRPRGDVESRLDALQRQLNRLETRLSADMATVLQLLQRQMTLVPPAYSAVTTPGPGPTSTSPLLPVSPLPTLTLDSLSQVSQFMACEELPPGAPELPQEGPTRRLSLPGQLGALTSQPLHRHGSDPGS

Structure (SMILES)	MIC90 [1] [µM]	logP [2]	MIC90 [3] [µM]	MIC90 [4] [µM]	MIC90 [5] [µM]	MIC90 [6] [µM]	MIC90 (Mycobacterium avium) [µM]	MIC90 (Staphylococcus aureus) [µM]	Activity (A-375)	Activity (HT-29)	Activity (MCF7)	Activity (FaDu)	Activity (NIH3T3)	Activity (HEK293)	also measured
COc1ccc(CCN2CCC(C(=O)Nc3ccnc4ccc(OC)nc34)CC2)cc1	100 (≈ 42.1 µg/mL)	1.9													
COc1ccc2nccc(NC(=O)C3CCN(CCc4ccc(C(F)(F)F)c(F)c4)CC3)c2n1	0.6 (≈ 0.286 µg/mL)	3.1	0.6 (≈ 0.286 µg/mL)	1 (≈ 0.476 µg/mL)	1.5 (≈ 0.715 µg/mL)	2 (≈ 0.953 µg/mL)	0.8 (≈ 0.381 µg/mL)	0.5 (≈ 0.238 µg/mL)	inactive	inactive	inactive	inactive	Non-Toxic	Non-Toxic	
COc1ccc2nccc(NC(=O)C3CCN(CCc4cccc(C(F)(F)F)c4)CC3)c2n1	12.5 (≈ 5.73 µg/mL)	2.9							inactive	inactive	inactive	inactive	Non-Toxic	Non-Toxic	
COc1ccc2nccc(NC(=O)C3(C)CCN(CCc4ccc(C(F)(F)F)cc4)CC3)c2n1	3 (≈ 1.42 µg/mL)	3.3	3 (≈ 1.42 µg/mL)	6.4 (≈ 3.02 µg/mL)	8 (≈ 3.78 µg/mL)	8 (≈ 3.78 µg/mL)	6 (≈ 2.84 µg/mL)	1 (≈ 0.473 µg/mL)	inactive	inactive	inactive	inactive	Non-Toxic	Non-Toxic	IC50 [7]: 6000 nM; Stability [8]: Stable; Stability [9]: Stable
COc1c(N2C[C@@H]3CCCN[C@@H]3C2)c(F)cc2c(=O)c(C(=O)O)cn(C3CC3)c12 [MOXIFLOXACIN]	2 (≈ 0.803 µg/mL)		2 (≈ 0.803 µg/mL)	4 (≈ 1.61 µg/mL)	4 (≈ 1.61 µg/mL)	4 (≈ 1.61 µg/mL)	0.6 (≈ 0.241 µg/mL)	0.2 (≈ 0.0803 µg/mL)							
COc1ccc2nccc(NC(=O)C3CCN(CCc4ccc(Cl)cc4)CC3)c2c1	50 (≈ 21.2 µg/mL)	2.8													
COc1ccc2nccc(NC(=O)C3CCN(CCc4ccc(C(F)(F)F)cc4)CC3)c2n1	1.5 (≈ 0.688 µg/mL)	2.9	1.5 (≈ 0.688 µg/mL)	2 (≈ 0.917 µg/mL)	2 (≈ 0.917 µg/mL)	3.5 (≈ 1.6 µg/mL)	2.5 (≈ 1.15 µg/mL)	0.2 (≈ 0.0917 µg/mL)	inactive	inactive	inactive	inactive	Non-Toxic	Non-Toxic	IC50 [7]: 1500 nM; inhibition at 10 µM (hERG (KCNH2)): 93%; Stability [8]: Stable; Stability [9]: Stable
O=C(Nc1cccc2ccc(Cl)nc12)C1CCN(CCc2ccc(C(F)(F)F)cc2)CC1	50 (≈ 23.1 µg/mL)	3.9													IC50 [7]: 3000 nM

Now from value to molecule, other results behind:

MIC90 [1] [µM]	logP [2]	Structure (SMILES)	MIC90 [3] [µM]	MIC90 [4] [µM]	MIC90 [5] [µM]	MIC90 [6] [µM]	MIC90 (Mycobacterium avium) [µM]	MIC90 (Staphylococcus aureus) [µM]	Activity (A-375)	Activity (HT-29)	Activity (MCF7)	Activity (FaDu)	Activity (NIH3T3)	Activity (HEK293)	also measured
100 (≈ 42.6 µg/mL)	2.3	COc1ccc2nccc(NC(=O)C3CCN(CCc4cccc(F)c4F)CC3)c2n1													
25 (≈ 10.2 µg/mL)	2.1	COc1ccc2nccc(NC(=O)C3CCN(CCc4cccc(F)c4)CC3)c2n1													
100 (≈ 42.6 µg/mL)	2.3	COc1ccc2nccc(NC(=O)C3CCN(CCc4c(F)cccc4F)CC3)c2n1													
50 (≈ 20.4 µg/mL)	2.1	COc1ccc2nccc(NC(=O)C3CCN(CCc4ccccc4F)CC3)c2n1													
25 (≈ 10.7 µg/mL)	2.3	COc1ccc2nccc(NC(=O)C3CCN(CCc4ccc(F)c(F)c4)CC3)c2n1													
